Source: patent US7491827B2, “Aryl sulfonamides useful as inhibitors of chemokine receptor activity” (Millennium Pharmaceuticals, Inc., priority 2003, dated 2009)
pKi: −log10 of the molar value.

The molecules below were run against T1, cloned human CCR8 receptor stably expressed in L1.2 cells (Homo sapiens, UniProt P51685) (assay: whole cell binding screen: inhibition of biotinylated human I309 binding to CCR8 (FMAT 8100 HTS)). Details: Ki of compounds to inhibit I-309 binding to CCR8, L1.2/hCCR8 cells, biotinylated human I-309, 10 point concentration response starting at 10 μM.
T1 construct: expressed in transfected cells
Summary of the method: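 Ten-point dilutions, top 10 μM final, were tested for displacing biotin-I309 from hCCR8-transfected L1.2 cells in HEPES-buffered HBSS with BSA and sodium azide, mixing 0.5 h before FMAT 8100 detection. Signals converted to percent inhibition against untreated wells and a 100 nM excess unlabeled I309 control.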

T1 sequence (P51685 whole entry): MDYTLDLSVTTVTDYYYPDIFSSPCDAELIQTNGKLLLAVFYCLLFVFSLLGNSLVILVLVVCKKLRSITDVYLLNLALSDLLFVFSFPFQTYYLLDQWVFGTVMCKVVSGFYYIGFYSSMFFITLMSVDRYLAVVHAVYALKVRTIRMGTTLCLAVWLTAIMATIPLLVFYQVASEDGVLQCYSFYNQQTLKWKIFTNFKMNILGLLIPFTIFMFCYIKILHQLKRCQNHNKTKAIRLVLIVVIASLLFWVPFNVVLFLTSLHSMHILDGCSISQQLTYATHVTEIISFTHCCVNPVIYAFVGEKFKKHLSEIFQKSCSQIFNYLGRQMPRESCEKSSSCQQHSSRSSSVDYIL

SMILES | pKi
Cc1ccccc1C(=O)Nc1ccc(S(=O)(=O)NC2CCN(C(=O)C3CCCC3)CC2)c2ccccc12 [Compound C-38, N-[4-(1-Cyclopentanecarbonyl-piperidin-4-ylsulfamoyl)-naphthalen-1-yl]-2-methyl-benzamide] | > 6.30
Cc1ccccc1C(=O)Nc1ccc(S(=O)(=O)NC2CCN(C(=O)CN)CC2)c2ccccc12 [Compound C-122, N-{4-[1-(2-Amino-acetyl)-piperidin-4-ylsulfamoyl]-naphthalen-1-yl}-2-methyl-benzamide] | > 6.30
CCOC(=O)N1CCC(NS(=O)(=O)c2ccc(NC(=O)c3ccccc3C)c3ccccc23)CC1 [Compound A-40, 4-[4-(2-Methyl-benzoylamino)-naphthalene-1-sulfonylamino]-piperidine-1-carboxylic acid ethyl ester] | > 6.30
Cc1ccccc1C(=O)Nc1ccc(S(=O)(=O)NC2CCN(C(=N)N3CCCC3)CC2)c2ccccc12 [Compound C-40, N-{4-[1-(Imino-pyrrolidin-1-yl-methyl)-piperidin-4-ylsulfamoyl]-naphthalen-1-yl}-2-methyl-benzamide] | > 6.30
CCC(=O)N1CCC(NS(=O)(=O)c2ccc(NC(=O)c3ccccc3C)c3ccccc23)CC1 [Compound C-50, 2-Methyl-N-[4-(1-propionyl-piperidin-4-ylsulfamoyl)-naphthalen-1-yl]-benzamide] | > 6.30
CCNC(=O)N1CCC(NS(=O)(=O)c2ccc(C(=O)Nc3ccccc3C)c3ccccc23)CC1 [Compound F-10, 4-(4-o-Tolylcarbamoly-naphthalene-1-sulfonylamino)-piperidine-1-carboxylic acid ethylamide] | > 6.30
Cc1ccccc1C(=O)Nc1ccc(S(=O)(=O)NC2CCN(C(=O)N(C)C)CC2)c2ccccc12 [Compound C-47, 4-[4-(2-Methyl-benzoylamino)-naphthalene-1-sulfonylamino]-piperidine-1-carboxylic acid dimethylamide] | > 6.30
O=C(Nc1ccc(S(=O)(=O)NC2CCNCC2)c2ccccc12)c1ccccc1 [Compound C-1, N-[4-(Piperidin-4-ylsulfamoyl)-naphthalen-1-yl]-benzamide] | > 6.00

Same assay, conditions: L1.2/hCCR8 cells, biotinylated human I-309, 10 point concentration response starting at 10 μM; read-out: Ki of compounds to inhibit I-309 binding to CCR8

pKi | SMILES
> 6.30 | Cc1ccccc1C(=O)Nc1ccc(S(=O)(=O)NC2[C@@H](C)CNC[C@@H]2C)c2ccccc12 [Compound J-46]
> 6.00 | COc1ccc(NS(=O)(=O)c2ccc(NC(=O)c3cccc(OC)c3)c3ccccc23)cc1 [Compound B-5, 3-Methoxy-N-[4-(4-methoxy-phenylsulfamoyl)-naphthalen-1-yl]-benzamide]
> 6.30 | Cc1ccccc1C(=O)Nc1ccc(S(=O)(=O)N[C@H]2CCN(C(=O)N(C)C)C[C@H]2C)c2c1CCCC2 (racemic) [Compound E-20, (±)-cis-3-Methyl-4-[4-(2-methyl-benzoylamino)-5,6,7,8-tetrahydro-naphthalene-1-sulfonylamino]-piperidine-1-carboxylic acid dimethylamide]
> 6.30 | Cc1ccccc1C(=O)Nc1ccc(S(=O)(=O)N[C@H]2CCN(C(=O)OC(C)C)C[C@H]2C)c2ccccc12 (racemic) [Compound C-13, (±)-cis-3-Methyl-4-[4-(2-methyl-benzoylamino)-naphthalene-1-sulfonylamino]-piperidine-1-carboxylic acid isopropyl ester]
> 6.30 | CCCC(=O)N1CCC(NS(=O)(=O)c2ccc(C(=O)Nc3ccccc3)c3ccccc23)CC1 [Compound F-25, 4-(1-Butyryl-piperidin-4-ylsulfamoyl)-naphthalene-1-carboxylic acid phenylamide]
> 4.52 | CC(C)c1ccc(NS(=O)(=O)c2ccc3cccc(NC(=O)c4ccccc4)c3c2)cc1 [Compound H-50, N-[7-(4-Isopropyl-phenylsuffamoyl)-naphthalen-1-yl]-benzamide]
> 6.30 | CCOC(=O)N1CCC(NS(=O)(=O)c2ccc(NC(=O)c3ccccc3C)c3c2CCC3)CC1 [Compound H-64, 4-[7-(2-Methyl-benzoylamino)-indane-4-sulfonylamino]-piperidine-1-carboxylic acid ethyl ester]
> 4.52 | O=C(Nc1ccc(S(=O)(=O)NC2CCNCC2)c2ccccc12)C1CCCC1 [Compound D-11, Cyclopentanecarboxylic acid [4-(piperidin-4-ylsulfamoyl)-naphthalen-1-yl]-amide]
> 6.30 | COc1ccc(NS(=O)(=O)c2ccc(NC(=O)c3ccc(OC)cc3)c3ccccc23)cc1 [Compound B-2, 4-Methoxy-N-[4-(4-methoxy-phenylsulfamoyl)-naphthalen-1-yl]-benzamide]
> 6.00 | CCOC(=O)N1CCC(NS(=O)(=O)c2cccc3c(C(=O)Nc4cccnc4)cccc23)CC1 [Compound H-35, 4-[5-(Pyridin-3-ylcarbamoyl)-naphthalene-1-sulfonylamino]-piperidine-1-carboxylic acid ethyl ester]

Second part, the molecule before the results:

SMILES | pKi
Cc1ccccc1C(=O)Nc1ccc(S(=O)(=O)N[C@H]2CCN(C(=O)OC(C)C)C[C@@H]2C)c2ccccc12 (racemic) [Compound C-18, (±)-trans-3-methyl-4-[4-(2-methyl-benzoylalino)-naphthalene-1-sulfonylamino]-piperidine-1-carboxylic acid isopropyl ester] | > 6.30
Cc1ccccc1NC(=O)c1ccc(S(=O)(=O)NC2CCN(C(=O)OC(C)(C)C)CC2)c2ccccc12 [Compound F-4, 4-(4-o-Tolylcarbamoyl-naphthalene-1-sulfonylamino)-piperidine-1-carboxylic acid tert-butyl ester] | > 6.30
CCCS(=O)(=O)N1CCC(NS(=O)(=O)c2ccc(NC(=O)c3ccccc3C)c3ccccc23)CC1 [Compound C-59, 2-Methyl-N-{4-[1-(propane-1-sulfonyl)-piperidin-4-ylsulfamoyl]-naphthalen-1-yl}-benzamide] | > 6.30
CCOC(=O)[C@H]1CN(C(=O)OCC)CC[C@@H]1NS(=O)(=O)c1ccc(NC(=O)c2ccccc2C)c2ccccc12 (racemic) [Compound C-79, (±)-(trans)-4-[4-(2-Methyl-benzoylamino)-naphthalene-1-sulfonylamino]-piperidine-1,3-dicarboxylic acid diethyl ester] | > 4.52
CCC(=O)N1CCC(NS(=O)(=O)c2ccc(NC(=O)c3ccccc3OC)c3ccccc23)CC1 [Compound C-102, 2-Methoxy-N-[4-(1-propionyl-piperidin-4-ylsulfamoyl)-naphthalen-1-yl]-benzamide] | > 6.30
Cc1ccccc1C(=O)Nc1ccc(S(=O)(=O)NC2CCN(C(=O)OC(C)(C)C)C2)c2c1CCC2 (racemic) [Compound H-68, (±)-3-[7-(2-Methyl-benzoylandno)-indane-4-sulfonylamino]-pyrrolidine-1-carboxylic acid tert-butyl ester] | > 6.30
CC(C)NS(=O)(=O)c1ccc(NC(=O)c2ccccc2)c2ccccc12 [Compound A-11, N-(4-Isopropylsulfamoyl-naphthalen-1-yl)-benzamide] | > 4.52
CCOC(=O)N1CCC(NS(=O)(=O)c2ccc(NC(=O)c3ccccc3C)c3c2CCC3)C1 (racemic) [Compound H-72, (±)-3-[7-(2-Methyl-benzoylamino)-indane-4-sulfonylamino]-pyrrolidine-1-carboxylic acid ethyl eter] | > 6.30
Cc1cccc(NC(=O)c2ccc(S(=O)(=O)NC3CCN(C(=O)N(C)C)CC3)c3ccccc23)c1C [Compound F-20, 4-[4-(2,3Dimethyl-phenylcarbamoyl)-naphthalene-1-sulfonylamino]-piperidine-1-carboxylic acid dimethylamide] | > 6.30
CCOC(=O)N1CC[C@H](NS(=O)(=O)c2ccc(NC(=O)c3ncccc3C)c3ccccc23)[C@H](C)C1 (racemic) [Compound D-7, (±)-(cis)-3-Methyl-4-{4-[(3-methyl-pyridine-2-carbonyl)-amino]-naphthalene-1-sulfonylamino}-piperidine-1-carboxylic acid ethyl ester] | > 6.30
Cc1ccccc1C(=O)Nc1ccc(S(=O)(=O)NC2[C@@H](C)CN(Cc3ccccc3)C[C@@H]2C)c2ccccc12 (racemic) [Compound A-45, (±)-(cis, trans)-N-[4-(1-Benzyl-3,5-dimethyl-piperidin-4-ylsulfamoyl)-naphthalen-1-yl]-2-methyl-benzamide] | > 4.52
Cc1ccccc1C(=O)Nc1ccc(S(=O)(=O)N[C@H]2CCN(Cc3ccccc3)C[C@H]2C)c2c1CCC2 (racemic) [Compound H-74, (±)-cis-N-[7-(1-Benzyl-3-methyl-piperidin-4-ylsulfamoyl)-indan-4-yl]-2-methyl-benzamide] | > 6.00
CCNC(=O)N1CC[C@H](NS(=O)(=O)c2ccc(NC(=O)c3ccccc3C)c3ccccc23)[C@@H](C)C1 (racemic) [Compound C-16, (±)-trans-3-Methyl-4-[4-(2-methyl-benzoylanlino)-naphthalene-1-sulfonylamino]-piperidine-1-carboxylic acid ethylaiide] | > 6.30
CCOC(=O)N1CCC(NS(=O)(=O)c2ccc(CNCc3ncc[nH]3)c3ccccc23)CC1 [Compound G-9, 4-(4-{[(lH-Imidazol-2-ylmethyl)-amino]-methyl}-naphthalene-1-sulfonylamino)-piperidine-1-carboxylic acid ethyl ester] | > 4.52
CCOC(=O)N1CCC(NS(=O)(=O)c2cccc3c(CNC4CCCCC4)cccc23)CC1 [Compound H-46, 4-(5-Cyclohexylainnomethyl-naphthalene-1-sulfonylainino)-piperidine-1-carboxylic acid ethyl ester] | > 6.30
C[C@@H]1CNCC[C@@H]1NS(=O)(=O)c1ccc(N2C(=O)c3ccccc3C2=O)c2ccccc12 (racemic) [Compound C-74, (±)-(cis)-4-(1,3-Dioxo-1,3-dihydro-isoindol-2-yl)-naphthalene-1-sulfonic acid (3-methyl-piperidin-4-yl)-amide] | > 4.52
